Converted amounts (≈) assume the structure as drawn. Like-named read-outs stand apart in the source and are kept apart here.
Key:
[1] = tested on: HepG-2 cancer cell line; experiment: Cytotoxic activity (MTT assay); assay type: cell-based; conditions: for IC50: Homo sapiens; for Selectivity Index HepG2: IC50 normal (WI-38)/IC50 cancer
Method: (§1) The HPLC was performed in the Institute for Plant Biology, TU Braunschweig, using a Young Lin quaternary pump, vacuum degasser, column oven (40 °C), diode array detector (YL9160 PDA), and a Midas Spark Holland autosampler. UV spectra (λ max) were measured in the central laboratory of the Faculty of Pharmaceutical Science at Mansoura University using spectroscopic methanol with an ultraviolet-visible spectrophotometer (Shimadzu 1601 PC, version TCC-240A, Kyoto, Japan). The NMR unit of Mansoura University’s Faculty of Pharmacy obtained nuclear magnetic resonance spectra (^1H-NMR, ^13C-NMR, DEPT-Q, APT, HSQC, and HMBC) using a Bruker DRX 600 NMR spectrometer (600 and 150 MHz for ^1H and ^13C-NMR, respectively) and with the Bruker Corporation Avance III 400 spectrometer, which measures ^1H and ^13C-NMR at 400 and 100 MHz, respectively. The types of solvents that are used are CDCl3, CD3OD, and DMSO-d6. For normal phase chromatography, silica gel G 60–230 mesh (Merck, Darmstadt, Germany) was packed using a wet or dry method in the specified solvent. The purchase of Normal Human lung fibroblast (WI-38), hepatic cancer cell lines (HePG-2), and mammary gland (MCF-7) cell lines from ATCC was made possible by the Holding firm for biological goods and vaccines (VACSERA), which is based in Cairo, Egypt.
(§2) Using the MTT test, the inhibitory effects of substances on cell growth were ascertained using the cell lines compared to normal lung fibroblast cells (WI-38). The selectivity index was calculated via the Selectivity index (SI) equation: SI equals IC50 normal/IC50 cancer.

[2] = tested on: MCF-7 cancer cell line; experiment: Cytotoxic activity (MTT assay); assay type: cell-based; conditions: for IC50: Homo sapiens; for Selectivity Index MCF-7: IC50 normal (WI-38)/IC50 cancer
Method: as §1, §2

[3] = Cytotoxic activity (MTT assay), normal cells; assay type: cell-based; conditions: human
Method: as §1, §2

[4] = tested on: C. albicans; experiment: Antimicrobial screening, zone of inhibition; assay type: cell-based; conditions: Table 1; for zone of inhibition at 1000 µg/mL: Candida albicans, isolated compounds 1 mg/mL, read-out: C. Albicans Diameter of Inhibition Zone (mm); for C. Albicans %Activity Index: 1 mg/mL, relative to clotrimazole
Method: (§3) The procedure was performed according to […] et al.. A comparison of the extract's zone of inhibition to that of a reference antibiotic's activity index was determined using the following equation:Activity index = (the inhibition zone of extract/the inhibition zone of the standard) × 100

[5] = tested on: E. coli; experiment: Antimicrobial screening, zone of inhibition; assay type: cell-based; conditions: Table 1; for zone of inhibition at 1000 µg/mL: Escherichia coli, isolated compounds 1 mg/mL, read-out: E. coli Diameter of Inhibition Zone (mm); for E. coli %Activity Index: 1 mg/mL, relative to ciprofloxacin
Method: as §3

[6] = tested on: S. aureus; experiment: Antimicrobial screening, zone of inhibition; assay type: cell-based; conditions: Table 1; for zone of inhibition at 1000 µg/mL: Staphylococcus aureus, isolated compounds 1 mg/mL, read-out: S. aureus Diameter of Inhibition Zone (mm); for S. aureus %Activity Index: 1 mg/mL, relative to ciprofloxacin
Method: as §3

[7] = tested on: P. aeruginosa; experiment: Antimicrobial screening, zone of inhibition; assay type: cell-based; conditions: Table 1; for zone of inhibition at 1000 µg/mL: Pseudomonas aeruginosa, isolated compounds 1 mg/mL, read-out: P. aeruginosa Diameter of Inhibition Zone (mm); for P. aeruginosa %Activity Index: 1 mg/mL, relative to ciprofloxacin
Method: The procedure was performed according to Stylianakis et al.. A comparison of the extract’s zone of inhibition to that of a reference antibiotic’s activity index was determined using the following equation:Activity index = (the inhibition zone of extract/the inhibition zone of the standard) × 100

[8] = ABTS antioxidant assay; assay type: biochemical; design: IC50 in ABTS assay: unit not given beside the values; conditions: isolated compounds from lettuce seedcake; unit not given
Method: The experiment was performed in triplicate according to Zaky et al.. The absorbance of control of the resulting green-blue solution (ABTS* radical solution) was recorded at λ max 734 nm.

[9] = tested on: SOD; experiment: SOD activity in rat paw tissue homogenate (carrageenan model); assay type: in vivo
Method: (§4) The levels of inflammatory mediators (IL-1β, TNF-α, and PGE2) in rat paw tissue homogenate were measured using the following Kits: Rat TNF-α (Tumor Necrosis Factor Alpha) ELISA Kit from Elabscience® Company, Houston, TX, USA, Interleukin 1 Beta (IL-1b) Organism Species: Rattus norvegicus (Rat) from Cloud Clone Crop Company and Rat PGE2 (Prostaglandin E2) ELISA Kit from Fine test® company Hubei, China. In addition, oxidative stress parameters in rat paw tissue homogenate were measured using superoxide dismutase, glutathione peroxidase, and catalase Kits from the Biodiagnostic company, Birmingham, UK.
(§5) Rats were slaughtered, and their paw tissues were gathered and weighed five hours after the carrageenan was administered. The tissues underwent processing after being fixed in 10% formalin. Rat paw tissue was homogenized, and its oxidative stress indices (SOD, CAT, and GPx) as well as the levels of inflammatory mediators (IL-1β, TNF-α, and PGE2) were measured.

[10] = tested on: carrageenan-induced paw oedema; experiment: Carrageenan-induced paw oedema; assay type: in vivo; conditions: dose 10 mg/kg oral, rat
Method: Adult albino rats 180-220 g of both sexes used in the investigation were acquired from the Mansoura University Faculty of Pharmacy's Animal House. Standard laboratory diet and water were provided, and they were housed in cages maintained at a constant temperature of 22 ± 2 °C. The Animal Care and Use Committee (MU-ACUC) of Mansoura University, Egypt, has approved all procedures involving animals with code number: […] Throughout the experiment, medications and extracts were given orally in doses of 1 mL/100 g of the rat's body weight after being solubilized in carboxymethyl cellulose (CMC) in order to create a suspension formula. In this test, rats were divided into six groups, with each group containing 5 animals. Group-1: […] Group-2: Positive control (carrageenan-induced oedema, Sigma (St. Louis, MO, USA)) without any treatment. […] Group-4: […] extract of Lactuca sativa was administered at a 2 g/kg dose. Group-5: Compound (1) is administered at a dose of 20 mg/kg. Group-6: Compound (1) at a dose of 40 mg/kg. Group-7: Combination of standard and compound (1) at doses of (10 + 20) mg/kg, respectively. […] Using a digital vernier calliper, the swelling of the paw that had been injected with carrageenan was measured prior to injection as well as 1, 2, 3, 4, and 5 h following the treatment's induction. The percentage inhibition of oedema in the test animals treated with the extract compared to the carrageenan control group was used to calculate the anti-inflammatory activity. The formula […] was used to calculate the percentage inhibition of inflammation, where “dt” represents the difference in paw volume in the drug-treated group and “dc” represents the difference in paw volume relative to the control group. Moreover, “I” represents the suppression of inflammation.

[11] = tested on: GPx; experiment: GPx activity in rat paw tissue homogenate (carrageenan model); assay type: in vivo
Method: as §4, §5

[12] = tested on: dermal inflammation; experiment: Histopathological assessment of paw skin tissue (carrageenan model); assay type: in vivo, rat; conditions: Group 3, ibuprofen 10 mg/kg; 5 h after carrageenan
Excerpt: Five hours following the carrageenan injection, tissue specimen samples from the paw skin tissue of every group under study were removed for histological examination. Prior to being submerged in paraffin blocks, they were fixed in a 10% formalin solution and stained with hematoxylin-eosin. Using a microtome, paraffin sections with a thickness of 5 µm were cut, and hematoxylin and eosin were frequently applied to the sections. Microscopically, these tissue slices were inspected. Consequently, the sections were examined under a light microscope; on the other hand, photos taken with a digital camera (Canon Power-shot D10) recorded the progression of paw oedema.

[13] = tested on: CAT; experiment: CAT activity in rat paw tissue homogenate (carrageenan model); assay type: in vivo; conditions: paw tissue 5 h after carrageenan; ibuprofen 10 mg/kg
Method: as §4, §5

[14] = HepG2, read-out: In Vitro Cytotoxicity IC50 (µg/mL) HepG-2
[15] = MCF7, read-out: In Vitro Cytotoxicity IC50 (µg/mL) MCF-7
[16] = paw tissue 5 h after carrageenan, ibuprofen 10 mg/kg

Row | Compound | IC50 [1, 14] [µg/mL] | Selectivity Index HepG2 [1] | IC50 [2, 15] [µg/mL] | Selectivity Index MCF-7 [2] | zone of inhibition at 1000 µg/mL [4] [mm] | C. Albicans %Activity Index [4] [%] | zone of inhibition at 1000 µg/mL [5] [mm] | E. coli %Activity Index [5] [%] | zone of inhibition at 1000 µg/mL [6] [mm] | S. aureus %Activity Index [6] [%] | zone of inhibition at 1000 µg/mL [7] [mm] | P. aeruginosa %Activity Index [7] [%] | also measured
1 | O=c1cc(-c2ccc(O)c(O)c2)oc2cc(O[C@@H]3O[C@H](CO)[C@@H](O)[C@H](O)[C@H]3O)cc(O)c12 [Compound 3, luteolin 7-O-β-D-glucoside] | 24.8 ± 1.9 (≈ 55.4 µM) | 2 | 17.8 ± 1.3 (≈ 39.7 µM) | 2.8 | 9.87 ± 0.15 | 36.7 | 8.8 ± 0.15 | 33.8 | 14.8 ± 0.15 | 61.9 | 11.8 ± 0.25 | 51.5 | IC50 [3]: 49.6 ± 2.7 µg/mL (≈ 111 µM)
2 | O=c1cc(-c2ccc(O)cc2)oc2cc(O[C@@H]3O[C@H](CO)[C@@H](O)[C@H](O)[C@H]3O)cc(O)c12 [Compound 4, apigenin 7-O-β-D-glucoside] | 43.4 ± 2.5 (≈ 100 µM) | 1.9 | 39.8 ± 2.2 (≈ 92 µM) | 2.1 | 5.95 ± 0.07 | 22.1 | 6.8 ± 0.15 | 26.1 | 11.9 ± 0.15 | 50 | 9.8 ± 0.15 | 42.8 | IC50 ([3]; MTT, normal cells, read-out: In Vitro Cytotoxicity IC50 (µg/mL) WI-38): 84.3 ± 4.3 µg/mL (≈ 195 µM); IC50 in ABTS assay [8]: 51.27 ± 0.25
3 | CCC(CC[C@@H](C)C1CCC2C3CC=C4C[C@@H](O[C@@H]5O[C@H](CO)[C@@H](O)[C@H](O)[C@H]5O)CC[C@]4(C)C3CC[C@@]21C)C(C)C (stereo partly drawn) [Compound 5, β-sitosterol 3-O-β-D-glucoside] |  | 0.54 |  | 0.66 | 4.9 ± 0.1 | 18.2 | 5.1 ± 0.1 | 19.6 | 10.8 ± 0.2 | 49.6 | 7.9 ± 0.1 | 34.5 | IC50 ([1]; HepG2, MTT, read-out: In Vitro Cytotoxicity IC50 (µg/mL) HepG-2): 63.6 ± 3.4 µg/mL (≈ 110 µM); IC50 ([2]; MCF7, MTT, read-out: In Vitro Cytotoxicity IC50 (µg/mL) MCF-7): 52.8 ± 2.9 µg/mL (≈ 91.5 µM); IC50 ([3]; WI-38 normal lung fibroblast cells, MTT, normal cells, read-out: In Vitro Cytotoxicity IC50 (µg/mL) WI-38): 34.8 ± 2.1 µg/mL (≈ 60.3 µM)
4 | COc1cccc2c1C(=O)c1c(O)c3c(c(O)c1C2=O)C[C@@](O)(C(=O)CO)C[C@@H]3O[C@H]1C[C@H](N)[C@H](O)[C@H](C)O1 [Doxorubicin, doxorubicin, reference compound] | 4.5 ± 0.2 (≈ 8.28 µM) |  |  |  |  |  |  |  |  |  |  |  | 
5 | CC(C)Cc1ccc(C(C)C(=O)O)cc1 (stereo not drawn) [Ibuprofen, ibuprofen, reference compound] |  |  |  |  |  |  |  |  |  |  |  |  | SOD protection ([9]; ibuprofen alone): 75.17%; SOD (U/gm Tissue) [9, 16]: 142.1 ± 14.71 U/gm Tissue; % Inhibition (%I) of paw oedema ([10]; 1 h): 15.62%; Increase in Paw Oedema ([10]; 1 h): 0.69 ± 0.16 mL; % Inhibition (%I) of paw oedema ([10]; 2 h): 25.62%; Increase in Paw Oedema ([10]; 2 h): 1.57 ± 0.21 mL; % Inhibition (%I) of paw oedema ([10]; 3 h): 28.5%; Increase in Paw Oedema ([10]; 3 h): 1.82 ± 0.38 mL; % Inhibition (%I) of paw oedema ([10]; 4 h): 62.66%; Increase in Paw Oedema ([10]; 4 h): 1.49 ± 0.47 mL; % Inhibition (%I) of paw oedema ([10]; 5 h): 70.9%; Increase in Paw Oedema ([10]; 5 h): 1.20 ± 0.37 mL; GSH protection ([11]; ibuprofen alone): 78.74%; GPx (U/gm Tissue) [11, 16]: 93.35 ± 8.84 U/gm Tissue; Histopathology of paw skin (H&E) [12]: mild dermal inflammation; CAT (U/gm Tissue) [13]: 2.20 ± 0.20 U/gm Tissue

— PMC11507441, “Oilseed Cakes: A Promising Source of Antioxidant, and Anti-Inflammatory Agents—Insights from Lactuca sativa” (International Journal of Molecular Sciences, 2024)
